Reference: patent publication US20210252022A1, “COMPOSITION FOR THE PREVENTION OR THE TREATMENT OF VISUAL IMPAIRMENTS COMPRISING URSODEOXYCHOLIC ACID” (AMICOGEN PHARMA INC., priority 2017, published 2021)
Entries after “also recorded” stand apart in the source; their conditions may differ. Like-named read-outs stand apart in the source and are kept apart here.

Columns and labels:
[1] = cited from earlier work
[2] = cited from earlier work; remark: listed apart in the source
[3] = crystalline form, cited from earlier work
[4] = DMSO/PBS (pH 7.2) solution; cited from earlier work
function of the retina = tested on: function of the retina; design: species or system C57 BL/6 mice; settings: mouse, in vivo
Method: 5) After C57 BL/6 mice (Orient Bio, Korea) were acclimatized to be adapted to the environment for 1 week, 7-week old mice were treated with the image-guided laser (Phoenix, USA) especially optic nerve area at 3, 6, 9, and 12 o'clock positions. The laser was irradiated at 532 nm, 100 ms/70 ms, 200 mW, and a spot size was 50 μm.
The mice were dark adapted for 24 hours before test and all tests were performed in a darkroom. The eyes of mice were dilated and general anesthetized by intraperitoneal injection with a mixture of ketamine (30 mg/kg) and xylazine hydrochloride (2.5 mg/kg) in order to detect the function of the retina. Electrodes were placed in skin, tail and cornea to run electroretinography. […] The amplitude from the trough of A-wave to the peak of B-wave was measured and evaluated as an index of the function of the retina. […]
FIG. 9A-FIG. 9F are the test results that measured the response degree of retina to the white light after dark adaptation of group with intravitreal injection at day 15 after laser injury.
The dose of each individual was calculated based on the body weight measured immediately prior to administration and then orally administered using a disposable syringe equipped with sonde. […]
FIG. 14A-FIG. 14E are the test results that measured the response degree of retina to the white light after dark adaptation of group with oral administration at day 14 after laser injury.

[5] = tested on: laser-induced choroidal neovascularization (CNV); assay: Fundus fluorescein angiography (FFA) in laser-induced CNV mouse model; type: in vivo, C57 BL/6 mice; settings: intravitreal injection 2 μl per eyeball, 14 days after laser injury, vs PBS
[6] = tested on: laser-induced choroidal neovascularization (CNV); assay: Optical coherence tomography (OCT) in laser-induced CNV mouse model; type: in vivo, C57 BL/6 mice; settings: intravitreal injection, day 14 after laser injury, vs PBS
[7] = tested on: vascular endothelial growth factor (VEGF); assay: Western blot analysis of VEGF expression in the choroid and the retina; type: in vivo, C57 BL/6 mice; settings: intravitreal administration, day 15 after laser injury
[8] = tested on: wet (age-related) macular degeneration; settings: in vivo; cited from earlier work

Molecule: C[C@H](CCC(=O)O)[C@H]1CC[C@H]2[C@@H]3[C@@H](O)C[C@@H]4C[C@H](O)CC[C@]4(C)[C@H]3CC[C@]12C [UDCA, ursodeoxycholic acid]
- absorbed at the ileum of the colon by the active transport mechanism ([1]; oral tablet or capsule, crystalline form): up to 20 % of intakes
- absorbed along the jejunum and ileum by nonionic passive diffusion ([1]; oral tablet or capsule): 30-60%
- absorbed to the liver through the small intestine ([1]; taken orally): ≥ 95%
- solubility in water [2]: 20 µg/mL
- solubility in water ([2]; protonated form): 53 µM
- acid dissociation constant, pKa [3]: about 5.0
- acid dissociation constant, pKa ([3]; listed as ursodeoxycholic acid): 5.1

Molecule: C[C@H](CCC(=O)NCCS(=O)(=O)O)[C@H]1CC[C@H]2[C@@H]3[C@@H](O)C[C@@H]4C[C@H](O)CC[C@]4(C)[C@H]3CC[C@]12C [tUDCA, tauroursodeoxycholic acid]
- solubility in water [2]: 200 µg/mL
- solubility ([2]; first dissolved in DMSO, then mixed with PBS (pH 7.2) 1:4): up to 200 mg/l
- time the stability of the solution can be maintained [4]: about 1 day
- pH (strong acidity) [3]: ≤ 1

Molecule: Eylea®: conventional VEGF antibody drug, positive control, intravitreal injection
- ERG response (function of the retina): increased
- choroidal neovascularization (FFA, corrected total fluorescence) [5]: statistically significantly inhibited
- size of CNV lesions (OCT) [6]: statistically significantly inhibited
- expression of VEGF in the choroid and the retina [7]: decreased; also recorded: less compared to that of YSB201

B1: Lucentis®: antibody drug inhibiting the activity of VEGF, intravitreal injection once every four weeks (antibody, chains of the INN, looked up, V domains shown)
VH: EVQLVESGGGLVQPGGSLRLSCAASGYDFTHYGMNWVRQAPGKGLEWVGWINTYTGEPTYAADFKRRFTFSLDTSKSTAYLQMNSLRAEDTAVYYCAKYPYYYGTSHWYFDVWGQGTLVTVSS
VL: DIQLTQSPSSLSASVGDRVTITCSASQDISNYLNWYQQKPGKAPKVLIYFTSSLHSGVPSRFSGSGSGTDFTLTISSLQPEDFATYYCQQYSTVPWTFGQGTKVEIK
modifications: Fab
- vision improvement rate [8]: 40%
- vision maintenance effect [8]: 90%
